Test results published in EP0390515A1, “Novel adenine derivatives and their use as agents for increasing crop yields” (MITSUBISHI GAS CHEMICAL COMPANY, INC., priority 1989, dated 1990).
In brackets after ≈: the same amount, converted by molar mass. Where two headings read alike, the source gives them in different places.

What was measured:
Water solubility = type: physicochemical
Protocol: Water solubility of adenine derivatives of the present invention and representative known cytokinin substances was measured and the results are shown in Table 7. […]

[1] = tested on: glycine (soybean) hypocotyl section; experiment: Assay for cytokinin activity according to glycine (soybean) hypocotyl section growth test (callus weight); type: cell-based, Soybean (var.: Enrei); conditions: Miller's medium with 2,4-D, dark, 30°C, about one month
Protocol: Soybean seeds (var.: Enrei) were disinfected with antiformin containing 0.7% effective chlorine for 4 minutes and washed thrice with sterilized water.
Agar (15 ml, 1.6%) was put in a test tube 2.5 cm in diameter. A groove was cut by forceps on the surface of the agar and two soybean seeds treated as above were placed in this groove and kept in the dark at 30°C for 5 days.
In a glass tubular bottle 26 mm in inner diameter was put Miller's medium, to which a given concentration of the candidate compound, benzyladenine or zeatin and […] of 2,4-D were added. The central portion of hypocotyl budding out from the above seeds was cut off to give a section 1 mm thick. Four of the sections as one group were transplanted to the Miller's medium. This was placed in the dark at 30°C for about one month and then the weight of callus formed was measured. For untreated group, the Miller's medium containing 9 mg/l of 2,4-D was used.

[2] = tested on: pig weed (Amaranthus caudatus); experiment: Assay of cytokinin activity to promote synthesis of betacyanin by pig weed cotyledon sections; type: cell-based; conditions: 27°C, 20 hours, dark
Protocol: Two sheets of filter paper were put double in a plastic container (19 x 28 cm) and were wetted with 60 ml of distilled water. Seeds of pig weed were sown on the filter papers and were germinated by keeping them in the dark at 27°C for 3 days. Seedlings of uniform size were chosen and were cut at the upper part of the hypocotyl and the seed coats were removed. This cotyledon with hypocotyl of 3-4 mm in length was used for assay.
Two sheets of filter paper were put double in a glass tubular bottle 32 mm in inner diameter and 1 ml of 0.0065M potassium phosphate buffer solution (pH: 6.3) containing a given concentration of the candidate compound, benzyladenine or zeatin and 0.5 g/l of tyrosine was added therein and ten of the above cotyledon sections were arranged therein and kept at 27°C for 20 hours in the dark. These ten cotyledon sections were put in a test tube containing 3 ml of distilled water and betacyanin was extracted by repeating thrice freezing and thawing. Absorbance of the solution was measured and the amount of the dye was calculated by the difference between the absorbance at 542 nm and at 620 nm. For the untreated group, 0.0065M potassium phosphate buffer solution (pH: 6.3) containing 0.5 g/l of tyrosine was used.

[3] = tested on: Rice seeds (var.: Nankin No. 11) leaf section; experiment: Assay of cytokinin activity by measurement of chlorophyll content (senescence retardation of rice leaf sections); type: cell-based, Rice (var.: Nankin No. 11); conditions: dark, 30°C, 3 days
Protocol: Rice seeds (var.: Nankin No. 11) were sown in soil mixed with fertilizer in a seed box and raised for about one month in a greenhouse (25°C in the daytime and 15°C in the night).
A leaf section 1 cm long was cut off from the center of the fourth leaf of the seedlings at the sixth leaf stage. Five leaf sections as one group which had been cut off were floated on the surface of an aqueous solution (2 ml) of the candidate compound or benzyl adenine at a given concentration contained in a glass tubular bottle of 32 mm in inner diameter. This was left to stand in the dark at 30°C for 3 days. The leaf sections were taken out and put in a test tube containing 10 ml of 80% ethanol and the glass tube was immersed in a water bath of 80°C for 20 minutes to extract chlorophyll. After cooling, 80% ethanol was added to make up to 10 ml and absorbance at 665 nm was measured. For the untreated group, water was used in place of the candidate solution in all examples.
Senescence retardation was determined according to the degree of chlorophyll retention, that is, calculated using the following formula (in all examples). [formula] • (A) : Absorbance of treated group after 3 days • (B) : Absorbance of untreated group after 3 days • (C) : Absorbance of leaves before treatment.

[4] = 20°C, read-out: Solubility (g/100 g H₂O) (20°C)

Row | Structure (SMILES) | solubility (Water solubility) [mg/mL] | The weight of soybean callus formed ([1]; 0.01 mg/l) [mg] | The weight of soybean callus formed ([1]; 0.1 mg/l) [mg] | The weight of soybean callus formed ([1]; 1.0 mg/l) [mg] | The weight of soybean callus formed ([1]; 10 mg/l) [mg] | The amount of betacyanin produced (difference between absorbance at 542 nm and 620 nm) ([2]; 0.1 mg/l) | The amount of betacyanin produced (difference between absorbance at 542 nm and 620 nm) ([2]; 1.0 mg/l) | The amount of betacyanin produced (difference between absorbance at 542 nm and 620 nm) ([2]; 10 mg/l) | The amount of betacyanin produced (difference between absorbance at 542 nm and 620 nm) ([2]; 100 mg/l) | solubility (Water solubility; [4]) [mg/mL] | The senescence retardation (%) ([3]; 0.01 mg/l) | The senescence retardation (%) ([3]; 0.1 mg/l) | The senescence retardation (%) ([3]; 1.0 mg/l) | The senescence retardation (%) ([3]; 10 mg/l) | The senescence retardation (%) ([3]; 100 mg/l) | The weight of soybean callus formed ([1]; 0.001 mg/l) [mg] | The amount of betacyanin produced (difference between absorbance at 542 nm and 620 nm) ([2]; 0.001 mg/l) | The amount of betacyanin produced (difference between absorbance at 542 nm and 620 nm) ([2]; 0.01 mg/l)
1 | c1coc(CNc2ncnc3[nH]cnc23)c1 [Kinetin, reference compound] | 0.02 (≈ 0.0929 mM) | – | – | – | – | – | – | – | – | – | – | – | – | – | – | – | – | –
2 | CON(C)CCCCNc1ncnc2nc[nH]c12 [MABD, N⁶-[4-(N-methoxy-N-methylamino)butyl]adenine] | – | 51 | 152 | 178 | 824 | 0.044 | 0.069 | 0.127 | 0.207 | 53 (≈ 212 mM) | 1 | 11 | 21 | 77 | 87 | – | – | –
3 | CON(C)CCCNc1ncnc2nc[nH]c12 [MAPD, N⁶-[3-(N-methoxy-N-methylamino)propyl]adenine] | – | 131 | 143 | 841 | 677 | 0.065 | 0.132 | 0.227 | 0.236 | 136 (≈ 576 mM) | 18 | 50 | 94 | 99 | 91 | – | – | –
4 | C/C(=C\CNc1ncnc2[nH]cnc12)CO [t-Zeatin, reference compound] | – | 382 | 815 | 662 | – | 0.198 | 0.242 | – | – | 1.4 (≈ 6.39 mM) | – | – | – | – | – | 52 | 0.040 | 0.062
